Measured values taken from PMC11843629, “Development of ketobenzothiazole-based peptidomimetic TMPRSS13 inhibitors with low nanomolar potency” (Journal of Enzyme Inhibition and Medicinal Chemistry, 2025).
Residue numbers refer to the chain shown, from its start. Like-named read-outs stand apart in the source and are kept apart here.

Assays:
[1] = target: T1, TMPRSS13 (Homo sapiens, UniProt Q9BYE2, K566A/R563A/R565A); assay: In vitro inhibition assay, recombinant TMPRSS13-AFAAS-6His, Boc-RVRR-AMC; format: biochemical; details: dose-response curve, Cheng-Prusoff equation
T1 construct: Shedding of the TMPRSS13 catalytic domain was detected for both constructs in the cell media; made in house; host or cells: Expi293F cells
T1 sequence (Q9BYE2 with tags, fused parts or gaps isoform Q9BYE2-6 limits assumed): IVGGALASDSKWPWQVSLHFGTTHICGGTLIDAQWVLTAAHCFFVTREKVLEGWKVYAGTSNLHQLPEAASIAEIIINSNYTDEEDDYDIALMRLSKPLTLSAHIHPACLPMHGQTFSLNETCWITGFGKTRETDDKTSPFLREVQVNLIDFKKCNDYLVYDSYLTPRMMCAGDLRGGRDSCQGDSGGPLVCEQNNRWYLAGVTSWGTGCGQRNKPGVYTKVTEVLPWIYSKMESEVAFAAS
Description: TMPRSS13-AFAAS-6His was expressed via the Expi293 Expression System Kit (Thermo Fisher Scientific, A14635) according to the manufacturer’s instructions and purified via IMAC chromatography. Briefly, Expi293F cells were transfected for 48 h with the TMPRSS13-AFAAS-6His construct, and media containing the shed recombinant protease was injected on a HisTrap Excel column (Cytiva, 17371206) via an ÄKTA Start protein purification system (Cytiva). The bound proteins were then eluted (20 mM sodium phosphate pH 7.4, 500 mM NaCl, and 500 mM imidazole), and the TMPRSS13-containing fractions were dialysed for 16 h at 4 °C in storage buffer (20 mM sodium phosphate pH 7.4, 150 mM NaCl, and 10% glycerol). Proteins were then concentrated via a 10 kDa Amicon Ultra centrifugal filter (Millipore Sigma, UFC8010) and stored at −80 °C.
(§1) Recombinant TMPRSS13-AFAAS-6His (this study) and matriptase[34] were expressed and purified as described. Recombinant human furin, Factor Xa (R&D Systems) and thrombin (MilliporeSigma) were obtained from commercial sources. Assays were performed in a buffer composed of 50 mM HEPES pH 7.4, 1 mM β-mercaptoethanol, 1 mM CaCl2 and 500 μg/ml BSA for furin and 50 mM HEPES pH 7.4, 150 mM NaCl and 0.1% BSA for other proteases. Assays were performed at room temperature using fluorogenic substrates (Boc-RVRR-AMC for furin and TMPRSS13, Boc-QAR-AMC for other proteases). The enzymatic activity was measured via fluorescence (excitation at 360 nm and emission at 460 nm) at room temperature using an HTX Synergy microplate reader (Agilent). Kis for TMPRSS13 and Factor Xa (FXa) were derived from IC50 dose–response curves using the Cheng-Prusoff equation[35] for reversible competitive inhibitors. For matripase, a plot of the enzyme velocity as a function of the inhibitor concentration was fitted with nonlinear regression analysis via the Morrison Ki equation[36] for competitive tight-binding inhibitors.

[2] = target: T2, WT TMPRSS13 (Homo sapiens, UniProt Q9BYE2); assay: In cellulo inhibitory activity in TMPRSS13-transfected Vero cells; format: cell-based; details: 10 µM compound, 24 h, media, relative to DMSO; for remaining activity at 10 µM: read-out: residual activity of TMPRSS13
T2 construct: the full length TMPRSS13 (TMPRSS13-WT); expressed in transfected cells; host or cells: Vero C1008 (Vero E6) cells
T2 sequence (Q9BYE2 326-567 isoform Q9BYE2-6 limits assumed): T1 sequence (Q9BYE2 with tags, fused parts or gaps isoform Q9BYE2-6 limits assumed) with A238R, A240R, A241K
Description: Vero C1008 cells were grown in 12-well plates (200K cells per well) and transfected for 24 h via Lipofectamine 3000 (Life Technologies) with one of the following plasmids: pcDNA3.1 (empty vector, EV), pcDNA3.1-TMPRSS13 WT or pcDNA3.1-TMPRSS13-AFAAS-6His. The cells were then washed 2 times with PBS before HCell-100 medium (Wisent) containing the indicated concentrations of each compound or the control condition (0.01% DMSO) was added. After 24 h of incubation with the compounds, the medium was harvested, and 90 μL was placed in 96-well plate wells with 10 µL of 200 μM Boc-RVRR-AMC. Fluorescence was acquired at room temperature in an FLx800 TBE microplate reader, with excitation at 360 nm and emission at 460 nm. The background was then subtracted by removing the signal recorded with the cells transfected with the empty vector (pcDNA3.1). Proteolytic activity results are represented as a percentage of the DMSO-treated condition. The IC50 was calculated via nonlinear regression of the compound concentration relative to the velocity.

[3] = test system: human trypsin; assay: Proteolysis assay (stability) with human trypsin; format: in vitro ADME; details: human trypsin (isolated protease), pH 7.4, compound final conc. 10 µM, 37 °C
Description: For the proteolysis assay, human trypsin (#T6424, Sigma–Aldrich, Saint-Louis, Missouri, USA) was resuspended in 1 mM HCl and 20 mM CaCl2, pH 3, and diluted to a final concentration of 0.1 mg/ml in PBS buffer (pH 7.4, 10 mM PO43-, 150 mM NaCl). The control peptide R8 and the compounds of interest were added to a 96-well plate (37 °C) to a final concentration of 10 µM. Trypsin (0.1 µg/ml) was added to the wells for 0, 0.5, 1, 2, 4 and 6 h. The plate was quenched with AcN/EtOH (1:1) 1% formic acid and 0.25 mM N,N-dimethylbenzamide (IS) and centrifuged at 4 °C.

[4] = in vitro; details: final conc. 0.2 mM, 37 °C
Source text: Adult male Sprague-Dawley rats, weighing between 225 and 300 g (Charles River Laboratories, St. Constant, Canada), were housed in groups of four per double-decker cage on Aspen shavings in a quiet environment. They were maintained under a 12-h light/dark cycle with unrestricted access to food and water. All experimental protocols received approval from the Animal Care Committee of the Université de Sherbrooke, adhering to the Canadian Council on Animal Care guidelines. The procedures also followed the ARRIVE guidelines (Animals in Research: Reporting In Vivo Experiments) and the United States NIH regulations (Ethics approval ID: 2022–3440). To evaluate the stability of compounds in plasma, 6 rats were anaesthetised with 2 L/min oxygen and 5% isoflurane, after which plasma was collected, pooled, and stored frozen until experiments were performed.
For evaluating plasma stability, rats were anaesthetised using a flow of 2 L/min of oxygen combined with 5% isoflurane. Blood was obtained via cardiac puncture from the left ventricle using a 20 G ½ needle, collected in pre-chilled Vacutainer K2EDTA tubes (367861), and maintained on wet ice. The blood was then centrifuged at 2000 xG for 15 min at 4 °C. Plasma samples were pooled from six rats, aliquoted, and stored at −80 °C. […] To terminate the reaction, 140 μL of a 1:1 acetonitrile-ethanol solution containing 0.25 mM N,N-dimethylbenzamide (used as an internal standard) was added. The resulting mixture was transferred onto an Impact Protein Precipitation filter plate (Phenomenex, California), with a 96-well UPLC plate positioned below to collect the filtrates. Both plates were centrifuged at 500 × g for 10 min at 4 °C. The filtrates were diluted with 30 μL of distilled water before analysis using an Acquity UPLC-MS system class H (column Acquity UPLC protein BEH C18 (2.1 mm × 50 mm), 1.7 μm particles, 130 Å pore size). The peptide’s half-life was determined from the degradation profile utilising the exponential one-phase decay function in GraphPad Prism 9. Mass spectra obtained at time points close to the calculated half-life were compared with those at 0 min (plasma inactivated prior to compound addition) to identify cleavage fragments.

[5] = target: T3, matriptase (Homo sapiens, UniProt Q9Y5Y6); assay: In vitro inhibition assay, matriptase, Boc-QAR-AMC; format: biochemical; details: Morrison Ki equation, tight-binding
T3 construct: made in house
T3 sequence (Q9Y5Y6 1-855): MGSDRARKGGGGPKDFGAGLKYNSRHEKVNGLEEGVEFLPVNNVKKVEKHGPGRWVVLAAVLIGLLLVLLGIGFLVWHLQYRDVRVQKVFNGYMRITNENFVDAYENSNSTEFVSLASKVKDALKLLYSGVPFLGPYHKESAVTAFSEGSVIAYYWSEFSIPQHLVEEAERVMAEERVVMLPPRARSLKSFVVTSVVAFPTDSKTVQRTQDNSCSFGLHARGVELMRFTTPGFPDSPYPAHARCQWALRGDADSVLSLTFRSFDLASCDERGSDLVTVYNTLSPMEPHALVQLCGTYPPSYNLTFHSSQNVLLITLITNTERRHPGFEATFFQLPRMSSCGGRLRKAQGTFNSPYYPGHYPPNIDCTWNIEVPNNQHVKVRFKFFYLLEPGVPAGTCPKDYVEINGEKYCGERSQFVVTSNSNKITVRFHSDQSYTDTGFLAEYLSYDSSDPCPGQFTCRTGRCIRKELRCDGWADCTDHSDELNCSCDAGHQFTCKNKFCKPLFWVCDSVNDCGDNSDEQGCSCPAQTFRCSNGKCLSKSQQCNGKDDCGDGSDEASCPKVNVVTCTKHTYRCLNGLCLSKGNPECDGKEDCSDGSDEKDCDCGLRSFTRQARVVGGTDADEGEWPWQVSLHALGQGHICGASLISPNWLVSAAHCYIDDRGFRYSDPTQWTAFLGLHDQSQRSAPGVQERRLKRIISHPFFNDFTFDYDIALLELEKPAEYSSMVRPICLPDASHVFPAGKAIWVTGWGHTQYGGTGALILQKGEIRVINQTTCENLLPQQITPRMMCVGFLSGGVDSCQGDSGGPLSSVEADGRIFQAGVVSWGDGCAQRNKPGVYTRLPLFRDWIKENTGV
Description: as §1

[6] = target: T4, Factor Xa (Homo sapiens, UniProt P00742); assay: In vitro inhibition assay, Factor Xa, Boc-QAR-AMC; format: biochemical; details: Cheng-Prusoff equation
T4 construct: purchased R&D Systems
Description: as §1

[7] = target: T5, thrombin (Homo sapiens, UniProt P00734); assay: In vitro inhibition assay, thrombin, Boc-QAR-AMC; format: biochemical
T5 construct: purchased MilliporeSigma
Description: as §1

[8] = target: T6, furin (Homo sapiens, UniProt P09958); assay: In vitro inhibition assay, furin, Boc-RVRR-AMC; format: biochemical
T6 construct: purchased R&D Systems
Description: as §1

T4 sequence (P00742 235-488 limits assumed): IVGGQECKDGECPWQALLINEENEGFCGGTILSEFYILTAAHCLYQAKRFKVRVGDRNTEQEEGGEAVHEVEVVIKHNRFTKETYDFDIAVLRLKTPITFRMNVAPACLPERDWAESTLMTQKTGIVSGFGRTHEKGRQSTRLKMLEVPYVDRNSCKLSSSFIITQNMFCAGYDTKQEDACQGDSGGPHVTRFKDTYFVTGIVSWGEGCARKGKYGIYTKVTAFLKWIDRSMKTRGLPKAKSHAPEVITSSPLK
T4 sequence (P00742 41-179 partner limits assumed): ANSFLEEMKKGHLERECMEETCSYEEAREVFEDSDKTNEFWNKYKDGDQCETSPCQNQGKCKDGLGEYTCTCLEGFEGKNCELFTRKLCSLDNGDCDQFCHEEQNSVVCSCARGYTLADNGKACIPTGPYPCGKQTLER
T6 sequence (P09958 108-794): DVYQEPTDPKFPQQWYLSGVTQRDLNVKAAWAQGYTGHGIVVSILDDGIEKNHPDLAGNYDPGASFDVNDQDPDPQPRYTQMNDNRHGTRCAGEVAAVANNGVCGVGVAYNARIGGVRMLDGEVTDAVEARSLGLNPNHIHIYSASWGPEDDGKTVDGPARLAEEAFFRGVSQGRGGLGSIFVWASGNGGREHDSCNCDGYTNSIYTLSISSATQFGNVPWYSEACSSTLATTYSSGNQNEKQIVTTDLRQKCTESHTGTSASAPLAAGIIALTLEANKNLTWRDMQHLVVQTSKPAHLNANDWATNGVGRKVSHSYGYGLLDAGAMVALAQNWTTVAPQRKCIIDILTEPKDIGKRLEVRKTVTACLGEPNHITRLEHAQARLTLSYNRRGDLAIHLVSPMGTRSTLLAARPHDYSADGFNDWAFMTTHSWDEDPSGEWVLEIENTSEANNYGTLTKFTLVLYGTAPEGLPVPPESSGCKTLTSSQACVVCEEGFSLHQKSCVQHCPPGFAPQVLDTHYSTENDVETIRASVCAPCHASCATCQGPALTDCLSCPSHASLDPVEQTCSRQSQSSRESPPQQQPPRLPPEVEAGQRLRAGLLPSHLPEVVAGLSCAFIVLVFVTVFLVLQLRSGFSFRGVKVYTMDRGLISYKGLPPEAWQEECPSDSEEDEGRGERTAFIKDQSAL

SMILES	Ki [1]	also measured
C[C@H](NC(=O)[C@H](CCC(N)=O)NC(=O)[C@@H](N)CCCNC(=N)N)C(=O)N[C@@H](CCCNC(=N)N)C(=O)c1nc2ccccc2s1 [Compound N-0100]	31.4 nM	–
N=C(N)NCCC[C@H](NC(=O)[C@@H]1CCCN1C(=O)[C@H](CCC(N)=O)NC(=O)[C@@H](N)CCCNC(=N)N)C(=O)c1nc2ccccc2s1 [Compound N-0107, RQPR-kbt]	14.7 nM	–
N=C(N)NCCC[C@H](NC(=O)[C@H](Cc1ccc(O)cc1)NC(=O)[C@H](CCC(N)=O)NC(=O)[C@@H](N)CCCNC(=N)N)C(=O)c1nc2ccccc2s1 [Compound N-0108]	22.3 nM	–
N=C(N)NCCC[C@H](NC(=O)[C@H](Cc1ccc(F)cc1)NC(=O)[C@H](CCC(N)=O)NC(=O)[C@@H](N)CCCNC(=N)N)C(=O)c1nc2ccccc2s1 [Compound N-0136]	17.7 nM	–
N=C(N)NCCC[C@H](NC(=O)[C@H](CCc1ccccc1)NC(=O)[C@H](CCC(N)=O)NC(=O)[C@@H](N)CCCNC(=N)N)C(=O)c1nc2ccccc2s1 [Compound N-0159, RQhFR-kbt]	10.3 nM	remaining activity at 10 µM [2]: 37.7%; half-life at 10 µM [3]: 38.4 h; half-life at 0.2 mM ([4]; male, Sprague-Dawley, rat, pooled rat plasma (K2EDTA), Mean half-life, Plasma): 9 min; Mean half-life, Plasma ([4]; rat plasma (male)): 8.97 min
C[C@H](NC(=O)[C@H](CCC(N)=O)NC(=O)[C@@H](N)CCCCNC(=N)N)C(=O)N[C@@H](CCCNC(=N)N)C(=O)c1nc2ccccc2s1 [Compound N-0179]	24.8 nM	–
C[C@H](NC(=O)[C@H](CCC(N)=O)NC(=O)[C@H](CCCNC(=N)N)NC(=O)c1ccccc1)C(=O)N[C@@H](CCCNC(=N)N)C(=O)c1nc2ccccc2s1 [Compound N-0182, PhCO-RQAR-Kbt]	28.5 nM	–
N=C(N)NCCC[C@H](NC(=O)[C@H](Cc1ccccc1)NC(=O)CCCC(N)=O)C(=O)c1nc2ccccc2s1 [Compound N-0388, (H)-QFR-Kbt]	1440 nM	Ki [5]: 24.2 nM; Ki [6]: 1200 ± 167 nM; Ki [7]: > 10000 nM; Ki [8]: > 10000 nM; residual activity of TMPRSS13 ([2]; 10 µM): 92%; remaining activity at 10 µM ([2]; Vero): 72%
C[C@H](NC(=O)CCCCNC(=N)N)C(=O)N[C@@H](Cc1ccccc1)C(=O)N[C@@H](CCCNC(=N)N)C(=O)c1nc2ccccc2s1 [Compound N-0439, (H)-RAFR-Kbt]	35.9 nM	–
N=C(N)NCCCCC(=O)N[C@@H](CCC(N)=O)C(=O)N[C@@H](CC1CCCCC1)C(=O)N[C@@H](CCCNC(=N)N)C(=O)c1nc2ccccc2s1 [Compound N-0678]	30 nM	–
N=C(N)NCCCCC(=O)N[C@@H](CCC(N)=O)C(=O)N[C@@H](CCc1ccccc1)C(=O)N[C@@H](CCCNC(=N)N)C(O)c1nc2ccccc2s1 (stereo partly drawn) [N-0430(OH), (H)-RQhFR-(OH)bt]	> 10000 nM	–
